Legend:
VvGT14a [1] = target: T1, VvGT14a (Vitis vinifera, UniProt F6H0R6); test: Substrate screening, radiochemical analysis with UDP-[14C]glucose; assay type: biochemical
Method: (§1) In the initial screening, each reaction mixture (200 μL in total) contained Tris-HCl buffer (100 mM, pH 8, 10 mM 2-mercaptoethanol), 37 pmol UDP-[^14C]glucose (0.01 μCi, Biotrend, Köln, Germany), substrate (50 μL of a 1 mg/mL stock solution) and purified protein (0.5-0.8 μg/μL). […] The organic phase was mixed with 2 mL Pro Flow P+ cocktail (Meridian Biotechnologies Ltd., Epsom, UK) and radioactivity was determined by liquid scintillation counting (LSC, Tri-Carb 2800TR, Perkin Elmer, Waltham Mass., USA). Additionally, negative controls without substrate were performed.
(§2) The recombinant proteins were expressed with an N-terminal GST-tag, affinity purified and verified by SDS-PAGE and Western Blot using GST-specific antibody.

VvGT14a [2] = target: T1, VvGT14a; test: Enantioselectivity by chiral phase SPME-GC-MS after hydrolysis of the formed glucoside; assay type: biochemical; conditions: racemic substrate, prolonged incubation (24 h)
Method: (§3) To determine the enantioselectivity of VvGT14 and VvGT15 the enantiomeric ratio of glucosidically bound citronellol and linalool was determined by enantioselective GC-MS. Following the incubation, residual citronellol and linalool were completely removed by extraction with dichloromethane. Chronellyl β-D-glucoside which remained in the aqueous phase was hydrolyzed by HCl (2 mL, 0.1 M, pH 1) for one hour at 100° C. to release citronellol (Skouroumounis and Sefton, 2000). In case of linalyl β-D-glucoside an enzymatic hydrolysis (AR 2000, citric acid buffer pH 4, 24 h) was applied due to the instability of linalool in acid solutions (Williams et al., 1982). […] After hydrolysis, citronellol and linalool were analyzed by SPME-GC-MS as described above.
(§4) GC-MS analysis was performed with a Varian GC-450 coupled to a Varian MS-240 ion-trap employing a Phenomenex Zebron ZB-WAXplus column (30 m×0.25 mm×0.25 μm, Aschaffenburg, Germany). Helium flow rate was 1 mL/min. The analysis was carried out in split mode (liquid injections) or splitless mode (SPME measurements) with 220° C. injector temperature. EI (electron impact ionization)-MS spectra were recorded from m/z 40 to 300 (ionization energy 70 eV; trap temperature 170° C.). The oven temperature program was 60° C. (3 min), 10° C./min up to 250° C. (5 min). In case of SPME measurements, liberated aglycones were isolated for 10 min at 60° C. using a fiber coated with a 85 μm film of polyacrylate (SUPELCO, Bellefonte, USA). After extraction the SPME fiber was desorbed for 10 min at 250° C. in the injection port of the GC-MS system and the column oven program was carried out as described above. Enantioselective GC-MS analysis was performed with a Varian GC-450 coupled to a Varian MS-240 ion-trap. The column was a DiAcB (heptakis-(2,3-di-O-acetyl-6-O-tert.-butyldimethylsilyl)-B-cyclodextrin), 26 m×0.32 mm i.d. with a 0.1 μm film. […] GC-MS measurements were recorded in full scan mode. Selected ion monitoring (SIM) mode was used for quantification.

VvGT14a [3] = target: T1, VvGT14a; conditions: VvGT14a versus UGT85B1
VvGT16 [4] = target: T2, VvGT16 (Vitis vinifera, UniProt F6HTJ4)
Method: The measurements were performed under the following conditions. […] Radioactivity was determined by LSC.

VvGT15a [5] = target: T3, VvGT15a (Vitis vinifera, UniProt A0ABY9C1E0); test: Substrate screening, radiochemical analysis with UDP-[14C]glucose; assay type: biochemical
Method: as §1, §2

VvGT15c = VvGT15c (Vitis vinifera, UniProt A0ABY9C1E0); test: as above; assay type: biochemical
Method: as §1, §2

VvGT16 [6] = target: T2, VvGT16; test: as above; assay type: biochemical
Method: as §1, §2

VvGT15b = VvGT15b (Vitis vinifera, UniProt A0ABY9C1E0); test: as above; assay type: biochemical
Method: as §1, §2

VvGT15a [7] = target: T3, VvGT15a; test: Enantioselectivity by chiral phase SPME-GC-MS after hydrolysis of the formed glucoside; assay type: biochemical; conditions: racemic substrate, prolonged incubation (24 h)
Method: as §3, §4

[8] = UDP-glucose fixed 512.5 μM (for UDP-glucose: geraniol fixed 1.25 mM), Tris-HCl pH 8.5, 30° C.

T2 sequence (F6HTJ4 entry or part of it): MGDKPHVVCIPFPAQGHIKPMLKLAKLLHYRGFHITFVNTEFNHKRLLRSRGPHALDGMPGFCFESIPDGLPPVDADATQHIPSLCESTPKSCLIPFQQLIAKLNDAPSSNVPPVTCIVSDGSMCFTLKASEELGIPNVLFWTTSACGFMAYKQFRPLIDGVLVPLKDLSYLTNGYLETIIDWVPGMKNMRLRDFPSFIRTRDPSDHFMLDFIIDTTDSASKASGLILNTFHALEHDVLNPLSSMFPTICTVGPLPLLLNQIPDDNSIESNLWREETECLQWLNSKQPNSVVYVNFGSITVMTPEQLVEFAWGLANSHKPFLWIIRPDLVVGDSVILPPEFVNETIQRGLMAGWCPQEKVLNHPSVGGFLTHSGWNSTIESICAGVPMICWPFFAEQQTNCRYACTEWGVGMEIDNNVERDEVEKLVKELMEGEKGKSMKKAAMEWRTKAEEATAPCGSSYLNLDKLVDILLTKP
T1 sequence (F6H0R6 entry or part of it): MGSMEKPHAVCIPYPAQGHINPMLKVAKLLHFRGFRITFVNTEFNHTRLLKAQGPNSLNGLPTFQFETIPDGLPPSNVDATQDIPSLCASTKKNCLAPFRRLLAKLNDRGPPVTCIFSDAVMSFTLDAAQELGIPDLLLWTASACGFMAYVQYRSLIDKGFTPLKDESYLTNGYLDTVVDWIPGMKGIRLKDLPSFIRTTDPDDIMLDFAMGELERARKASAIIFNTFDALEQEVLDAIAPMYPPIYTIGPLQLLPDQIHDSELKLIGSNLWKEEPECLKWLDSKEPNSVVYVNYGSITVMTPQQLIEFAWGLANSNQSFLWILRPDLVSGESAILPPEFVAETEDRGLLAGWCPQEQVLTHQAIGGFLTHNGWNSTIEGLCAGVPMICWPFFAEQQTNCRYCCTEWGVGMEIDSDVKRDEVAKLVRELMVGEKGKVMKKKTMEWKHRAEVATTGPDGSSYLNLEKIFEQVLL
T3 sequence (A0ABY9C1E0 entry or part of it): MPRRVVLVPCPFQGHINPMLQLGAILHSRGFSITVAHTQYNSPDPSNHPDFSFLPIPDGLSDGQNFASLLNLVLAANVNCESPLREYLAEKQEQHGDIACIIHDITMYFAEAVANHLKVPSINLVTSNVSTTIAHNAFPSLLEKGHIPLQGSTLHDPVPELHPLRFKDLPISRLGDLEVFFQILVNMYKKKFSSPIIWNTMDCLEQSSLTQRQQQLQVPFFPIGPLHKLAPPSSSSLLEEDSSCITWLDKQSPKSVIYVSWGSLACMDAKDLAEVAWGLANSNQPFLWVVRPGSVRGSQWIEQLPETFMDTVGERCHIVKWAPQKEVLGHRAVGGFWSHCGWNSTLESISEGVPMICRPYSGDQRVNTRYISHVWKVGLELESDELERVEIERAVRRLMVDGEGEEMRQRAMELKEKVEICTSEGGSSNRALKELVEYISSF
Chain of VvGT15c (A0ABY9C1E0 entry or part of it): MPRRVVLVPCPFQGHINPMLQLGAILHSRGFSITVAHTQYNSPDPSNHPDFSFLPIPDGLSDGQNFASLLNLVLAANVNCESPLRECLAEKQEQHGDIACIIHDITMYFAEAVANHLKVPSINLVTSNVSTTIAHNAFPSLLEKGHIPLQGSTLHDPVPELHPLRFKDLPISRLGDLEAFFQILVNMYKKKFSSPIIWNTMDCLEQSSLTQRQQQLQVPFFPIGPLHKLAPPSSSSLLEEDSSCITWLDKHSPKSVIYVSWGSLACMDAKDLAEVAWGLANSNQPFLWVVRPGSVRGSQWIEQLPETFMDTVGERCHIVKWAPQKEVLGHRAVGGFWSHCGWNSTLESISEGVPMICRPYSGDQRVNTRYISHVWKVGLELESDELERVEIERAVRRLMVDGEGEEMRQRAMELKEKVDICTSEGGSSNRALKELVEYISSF

Row | SMILES | conversion as substrate (in words) (VvGT14a [1]) | enantiomeric preference, aglycone liberated from the formed glucoside (VvGT14a [2]) | kcat/KM of VvGT14a higher than the value for UGT85B1 from Sorghum bicolor (VvGT14a [3]) [fold] | Km (VvGT16 [4]; [8]) [µM] | kcat (VvGT16 [4]; [8]) [s⁻¹] | transformation of R- and S-citronellol (in words) (VvGT16 [4]; radiochemical assays) | conversion as substrate (in words) (VvGT15a [5]) | conversion as substrate (in words) (VvGT15c) | conversion as substrate (in words) (VvGT16 [6]) | conversion as substrate (in words) (VvGT15b) | enantiomeric preference, aglycone liberated from the formed glucoside (VvGT15a [7])
1 | C=CC(C)(O)CCC=C(C)C (racemic) [linalool (rac), (R,S)-3,7-dimethyl-1,6-octadien-3-ol] | catalytic activity | slight enrichment of the R-enantiomer | – | – | – | – | – | – | – | – | –
2 | CC(C)=CCCC(C)CCO (racemic) [citronellol (rac), (R,S)-3,7-dimethyl-6-octen-1-ol] | preferred | no enantio-discrimination | 4 | 108 ± 2.5 | 0.008 | same efficiency | glucosylated primarily | glucosylated primarily | transformed | glucosylated primarily | no enantio-discrimination
